Measured values from patent US20110223157A1, “METHODS FOR THE TREATMENT OF NON-HODGKIN'S LYMPHOMAS USING LENALIDOMIDE, AND GENE AND PROTEIN BIOMARKERS AS A PREDICTOR” (priority 2010, published 2011).
Where two headings read alike, the source gives them in different places.

Tests used:
Format in all cases: cell-based
DLBCL cell lines = test: Proliferation of DLBCL cells in vitro, 3H-thymidine incorporation
Procedure: A panel of DLBCL cell lines of various cytogenetic features was tested for their sensitivity to the antiproliferative activity of lenalidomide. Cells were treated with lenalidomide for 5 days at 37° C.; proliferation of cells was determined using ^3H-thymidine incorporation method. Results of 3 independent experiments are shown (mean±SD). […] ABC-subtype cells appear more sensitive to the antiproliferative effect than other subtype cells including GCB-DLBCL and PMBL cells.

NFκB p65 = NFκB p65 activity, Active Motif transcription factor assay on nuclear extracts of treated DLBCL cells; conditions: 2 days; for inhibition at 1 µM / inhibition at 10 µM: read-out: P65 Inhibition (%) mean ± SD
Procedure: (§1) DLBCL cells were treated with lenalidomide or an IKK1/2 dual inhibitor (used as a positive inhibitor control) for 2 days. NFκB activity was examined with Active Motif transcription factor assay using nuclear extracts from cells following treatment.

NFκB p50 = NFκB p50 activity, Active Motif transcription factor assay on nuclear extracts of treated DLBCL cells; conditions: 2 days; for inhibition at 1 µM / inhibition at 10 µM: read-out: P50 Inhibition (%) mean ± SD
Procedure: as §1

[1] = 48 h, KARPS-1160p cells (PBML), 1 μM
[2] = Homo sapiens, OCI-Ly3, 48 h, OCI-Ly3 cells, 1 μM
[3] = Homo sapiens, OCI-Ly3, 48 h, OCI-Ly3 cells
[4] = Homo sapiens, OCI-Ly10, 48 h, OCI-Ly10 cells, 1 μM
[5] = Homo sapiens, OCI-Ly10, 48 h, OCI-Ly10 cells
[6] = Homo sapiens, TMD8, 48 h, TMD8 cells, 1 μM
[7] = Homo sapiens, TMD8, 48 h, TMD8 cells

## Nc1cccc2c1CN(C1CCC(=O)NC1=O)C2=O (stereo not drawn) [lenalidomide, 3-(4-amino-1-oxo-1,3-dihydro-isoindol-2-yl)-piperidine-2,6-dione]
DLBCL cell lines; ABC cell lines U2392, RIVA, TMD8 and OCI-Ly10
  Effect on proliferation: significantly inhibits
DLBCL cell lines; several DLBCL lines, particularly ABC-subtype Riva, U2932, TMD8, OCI-Ly10, 5 days at 37° C.
  Starting concentration of significant (p<0.05) inhibition of proliferation: 0.1 to 1 µM
NFκB p65; 1 μM, U2932 cells, p<0.001
  Effect on NFκB p65 activity: significantly inhibits
NFκB p65; [1]
  inhibition at 1 µM: 5.9 ± 0.49%
NFκB p65; 48 h, KARPS-1160p cells (PBML)
  inhibition at 10 µM: 5.4 ± 0.35%
NFκB p65; 48 h, RIVA cells, 1 μM
  inhibition at 1 µM: 19.3 ± 15.6%
NFκB p65; 48 h, RIVA cells
  inhibition at 10 µM: 41.7 ± 26.8%
NFκB p65; 48 h, U2392 cells, 1 μM
  inhibition at 1 µM: 40 ± 3.7%
NFκB p65; 48 h, U2392 cells
  inhibition at 10 µM: 47.9 ± 6.2%
NFκB p65; [2]
  inhibition at 1 µM: -17.4 ± 13.4%
NFκB p65; [3]
  inhibition at 10 µM: -15.8 ± 15%
NFκB p65; [4]
  inhibition at 1 µM: 27.6 ± 20.7%
NFκB p65; [5]
  inhibition at 10 µM: 22 ± 12.2%
NFκB p65; [6]
  inhibition at 1 µM: 14.1 ± 9%
NFκB p65; [7]
  inhibition at 10 µM: 49.7 ± 32.8%
NFκB p50; 1 μM, U2932 cells, p<0.05
  Effect on NFκB p50 activity: significantly inhibits
NFκB p50; [1]
  inhibition at 1 µM: 14.5 ± 0.95%
NFκB p50; 48 h, KARPS-1160p cells (PBML)
  inhibition at 10 µM: 16.4 ± 0.28%
NFκB p50; 48 h, RIVA cells, 1 μM
  inhibition at 1 µM: 11.1 ± 11.7%
NFκB p50; 48 h, RIVA cells
  inhibition at 10 µM: 28.6 ± 21%
NFκB p50; 48 h, U2392 cells, 1 μM
  inhibition at 1 µM: 32.5 ± 14.3%
NFκB p50; [2]
  inhibition at 1 µM: -10.3 ± 19.7%
NFκB p50; [3]
  inhibition at 10 µM: -9.5 ± 19.1%
NFκB p50; [4]
  inhibition at 1 µM: 22.7 ± 18.8%
NFκB p50; [5]
  inhibition at 10 µM: 22.6 ± 14.1%
NFκB p50; [6]
  inhibition at 1 µM: 14.4 ± 16.4%
NFκB p50; [7]
  inhibition at 10 µM: 48.5 ± 40.2%
